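Dose response: 5 concentrations. Exposure: 48 h. Format: 96-well plates. Endpoint: linear interpolation; highest concentration if not reached. The concentration for 50% growth inhibition is given as GI50. TGI is the concentration that stops growth completely.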
Columns and labels:
Experiment in all cases: NCI tumour cell line growth inhibition, 48 h
RXF-631 renal = test system: RXF-631 renal
M19-MEL melanoma = test system: M19-MEL melanoma
SNB-78 CNS = test system: SNB-78 CNS
DMS 114 small cell lung = test system: DMS 114 small cell lung
MDA-N = test system: MDA-N
MDA-MB-435 = test system: MDA-MB-435
T-47D breast = test system: T-47D breast
BT-549 breast = test system: BT-549 breast
HS 578T breast = test system: HS 578T breast

Structure (SMILES)	TGI (RXF-631 renal) [µM]	TGI (M19-MEL melanoma) [µM]	TGI (SNB-78 CNS) [µM]	TGI (DMS 114 small cell lung) [µM]	TGI (MDA-MB-435) [µM]	TGI (T-47D breast) [µM]	TGI (BT-549 breast) [µM]	TGI (HS 578T breast) [µM]	also measured
CC(C)(C)NNC(=O)/C(=C/c1ccc(Oc2ccc(Cl)c(Cl)c2)cc1)NC(=O)c1ccccc1	> 100	> 100	> 100	35.9	–	–	–	–	–
CC(=O)Nc1ccc(/C=C(\NC(=O)c2ccccc2)c2nc3ccc4c(c3[nH]2)C(=O)c2ccccc2C4=O)cc1	–	> 100	> 100	> 100	–	–	–	–	–
S=CN1CCCCC1	–	–	–	–	> 100	> 100	> 100	> 100	TGI (MDA-N): > 100 µM
COC(=O)c1c[nH]cc1CCc1c[nH]cc1C(=O)OC	–	> 100	> 100	–	–	–	–	–	–
Cc1cc2c(c3c1c1ccccc1n3C)C(=O)C=CC2=O	–	–	98.7	–	> 100	48.8	31.4	80.5	TGI (MDA-N): 62.5 µM
COc1ccc(OCC(=O)O)c2c1CCC(C(C)C)C2=O (stereo unspecified)	> 100	> 100	> 100	> 100	–	–	–	–	–
C/C(CN1C(=O)c2ccccc2C1=O)=N\NS(=O)(=O)c1cccc([N+](=O)[O-])c1	> 100	> 100	> 100	–	–	–	–	–	–
Cc1cc2c(cc1C)NC(=O)C(NC(=O)/C=C/c1ccccc1)C=N2 (stereo unspecified)	–	> 100	> 100	31.1	–	–	–	–	–
Cc1ccc(NC(=O)c2[nH]c(=S)nc(N)c2-c2ccccc2C)cc1C	–	> 100	> 100	> 100	–	–	–	–	–
Cc1ccc(C)c(NC(=O)C(=O)C2C(=O)C3=C(CC2(C)C)Nc2ccccc2S3)c1 (stereo unspecified)	–	–	–	–	> 100	–	> 100	> 100	TGI (MDA-N): > 100 µM
O=C(O)c1ccc(S(=O)(=O)c2ccccc2)c([N+](=O)[O-])c1	–	> 100	> 100	> 100	–	–	–	–	–
COc1cc2oc(=O)cc(C)c2cc1[N+](=O)[O-]	–	–	–	–	46.8	77.2	35.9	> 90.3	TGI (MDA-N): 28.4 µM
CC(C)(C)[OH+][O-].[O-]c1ccc(Cl)cc1C=Nc1ccc(Cl)cc1[O-].[O]=[V]	–	–	–	–	> 100	98.7	28.6	52.6	GI50 (MDA-N): 7.92 µM; TGI (MDA-N): > 100 µM; GI50 (MDA-MB-435): 14.6 µM; GI50 (T-47D breast): 11.9 µM; GI50 (BT-549 breast): 13.2 µM; GI50 (HS 578T breast): 19.4 µM
COc1cccc(N2C(=O)c3c(c4[nH]c5ccccc5c4c4ccc(C(C)(C)C)cc34)C2=O)c1	> 100	> 100	> 100	> 100	–	–	–	–	–
CCCCCCCCCCCCCS(=O)(=O)O	> 100	> 100	> 100	> 100	–	–	–	–	–
C[Si](C)(C)C#CCO[Si](C)(C)C	–	–	–	–	> 100	> 100	> 100	> 100	TGI (MDA-N): > 100 µM

Structure (SMILES)	TGI (RXF-631 renal) [µM]	TGI (M19-MEL melanoma) [µM]	TGI (SNB-78 CNS) [µM]	TGI (DMS 114 small cell lung) [µM]	TGI (MDA-MB-435) [µM]	TGI (T-47D breast) [µM]	TGI (BT-549 breast) [µM]	TGI (HS 578T breast) [µM]	also measured
O=C1C2C(C(=O)N1O)N(Cc1ccccc1)C(=O)N2Cc1ccccc1 (stereo unspecified)	–	> 100	> 100	> 100	–	–	–	–	–
CC1=CC=NN2C(=O)[C@H](C)C2C1 (stereo partly specified)	> 100	> 100	> 100	> 100	–	–	–	–	–
CCCN1C(=O)C/C(=C\C(C)=O)Nc2ccccc21	–	> 100	> 100	> 100	–	–	–	–	–
CCOC(=N)CC(=O)Nc1ccc(Cl)cc1	–	> 100	> 100	–	–	–	–	–	–
C/C(=N\NC(=S)N1CCCCCC1)c1nccnc1C	–	15.6	> 100	0.0275	–	–	–	–	–
Cc1ccc(C)c(NC(=O)C(=O)C(c2cnc3ccc([N+](=O)[O-])cc3n2)[N+](=O)[O-])c1 (stereo unspecified)	–	–	–	–	> 100	> 100	> 100	> 100	TGI (MDA-N): > 100 µM
C=C1C(=O)O[C@@H]2C[C@@H]1CC[C@]1(C)O[C@H]1CC[C@@]1(C)O[C@@H]1CC[C@@]2(C)O	–	–	–	–	> 100	33.3	89.5	67.3	GI50 (MDA-MB-435): 33 µM; GI50 (T-47D breast): 12.2 µM; GI50 (BT-549 breast): 31.9 µM; GI50 (HS 578T breast): 22.7 µM
CN/N=C(/Cc1occc(=O)c1O)C(=O)Nc1ccc(C)c(C)c1	–	> 100	> 100	> 100	–	–	–	–	–
CC(C)C(C(=O)O)N(CC1(O)OCC(O)C(O)C1O)N=O (stereo unspecified)	> 100	> 100	> 100	> 100	–	–	–	–	–
Cc1ccc(S(=O)(=O)N/N=C(\CCN2CCCC2)CC(c2ccccc2)c2c(O)c3ccccc3oc2=O)cc1 (stereo unspecified)	> 100	> 100	> 100	–	–	–	–	–	–
OCCN(CCO)N=Nc1ccc(-c2nc3ccccc3[nH]2)cc1	–	–	–	–	38.8	53.1	97.8	72.8	GI50 (MDA-MB-435): 18.5 µM; GI50 (T-47D breast): 19.8 µM; GI50 (BT-549 breast): 42.7 µM; GI50 (HS 578T breast): 23.5 µM
O=C1c2ccccc2-c2c1c1ccccc1c(=O)n2CCCNCCCn1c2c(c3ccccc3c1=O)C(=O)c1ccccc1-2	–	–	–	–	22.9	27.7	19.7	32.9	GI50 (MDA-MB-435): 9.34 µM; GI50 (T-47D breast): 10.7 µM; GI50 (BT-549 breast): 8.42 µM; GI50 (HS 578T breast): 9.54 µM
CC1=C(C)C(=O)c2c(c(C(=O)c3ccccc3)c3nc4ccccc4n3c2C)C1=O	–	–	–	–	> 100	> 100	> 100	> 100	GI50 (MDA-MB-435): > 100 µM; GI50 (T-47D breast): > 100 µM; GI50 (BT-549 breast): 54.7 µM; GI50 (HS 578T breast): 35.4 µM
Cc1ccc(Nc2nc(NCCO)c3ccccc3n2)cc1C	–	–	–	–	15.9	10.4	23.6	33.8	GI50 (MDA-MB-435): 4 µM; GI50 (T-47D breast): 2.29 µM; GI50 (BT-549 breast): 11.5 µM; GI50 (HS 578T breast): 12.4 µM
Cn1ncc(=S)[nH]c1=S	> 100	> 100	> 100	> 100	–	–	–	–	–
O=C1NC(=O)C(C(=O)C(=O)Nc2ccc(Br)cc2)C(=O)N1	> 100	> 100	> 100	> 100	–	–	–	–	–

— PubChem BioAssay (NCI)
